# Results reported in ChEMBL document CHEMBL1144741, “Review of cytotoxic cephalostatins and ritterazines: isolation and synthesis” (2008).
# Tested on: P388
# Assay: Antitumor activity against mouse P388 cells
# Type: functional
# Settings: read-out: ED50 (the source's name)
row,Compound,EC50 [nM]
1,C[C@H]1[C@@H](O)C2(Oc3cc4c(c5c3[C@H](C[C@H]5O)[C@@H]2C)CC[C@H]2Cc3nc5c(nc3C[C@]42C)C[C@@H]2CC[C@H]3C4=C[C@@H]6O[C@@]7(C[C@]6(O)[C@@]4(C)[C@H](O)C[C@@H]3[C@@]2(C)C5)O[C@](C)(CO)C[C@H]7O)OC1(C)C (some centres undefined) [CEPHALOSTATIN 5],42.5
2,C[C@H]1[C@H]2C[C@@H](O)c3c4c(cc(c32)OC12OC(C)(C)C[C@H]2O)[C@@]1(C)Cc2nc3c(nc2C[C@@H]1CC4)C[C@@]1(C)[C@@H](CC[C@H]2C4=C[C@@H]5O[C@@]6(C[C@]5(O)[C@@]4(C)[C@H](O)C[C@@H]21)O[C@](C)(CO)C[C@H]6O)C3 (some centres undefined) [CEPHALOSTATIN 6],2.3
3,CO[C@H]1c2nc3c(nc2C[C@@H]2CC[C@H]4C5=C[C@@H]6O[C@]7(O[C@](C)(CO)C[C@H]7O)[C@@H](C)[C@]6(O)[C@@]5(C)[C@H](O)C[C@@H]4[C@]21C)C[C@@]1(C)[C@@H](CC[C@H]2C4=CC[C@@H]5[C@H](C)[C@@]6(OC[C@]45C(=O)C[C@@]21O)OC(C)(C)C[C@H]6O)C3 [CEPHALOSTATIN 10],3.2
4,CO[C@H]1c2nc3c(nc2C[C@@H]2CC[C@H]4C5=CC[C@@H]6[C@@H](C)[C@]7(OC[C@]56C(=O)C[C@@H]4[C@]21C)OC(C)(C)C[C@H]7O)C[C@@]1(C)[C@@H](CC[C@H]2C4=C[C@@H]5O[C@]6(O[C@](C)(CO)C[C@H]6O)[C@@H](C)[C@]5(O)[C@@]4(C)[C@H](O)C[C@@H]21)C3 [CEPHALOSTATIN 11],2.7
5,C[C@@H]1[C@]2(O[C@H]3C=C4[C@@H]5CC[C@H]6Cc7nc8c(nc7C[C@]6(C)[C@H]5C[C@@H](O)[C@]4(C)[C@]31O)C[C@@H]1CC[C@H]3C4=C[C@@H]5O[C@]6(O[C@](C)(CO)C[C@H]6O)[C@@H](C)[C@]5(O)[C@@]4(C)[C@H](O)C[C@@H]3[C@@]1(C)C8)O[C@](C)(CO)C[C@H]2O [CEPHALOSTATIN 12],76.2
6,C[C@@H]1[C@]2(O[C@H]3C=C4[C@@H]5CC[C@H]6Cc7nc8c(nc7C[C@]6(C)[C@H]5C[C@@H](O)[C@]4(C)[C@]31O)C[C@@H]1CC[C@H]3C4=C[C@@H]5O[C@]6(O[C@](C)(CO)C[C@H]6O)[C@@H](C)[C@]5(O)[C@@]4(C)[C@H](O)C[C@@H]3[C@@]1(C)[C@H]8O)O[C@](C)(CO)C[C@H]2O [CEPHALOSTATIN 13],47.9
7,C[C@@H]1[C@H]2C[C@@H]3O[C@@]34[C@]3(O)CC[C@H]5Cc6nc7c(nc6C[C@]5(C)C3=CC(=O)[C@]24CO[C@]12OC(C)(C)C[C@H]2O)C[C@@H]1CC[C@H]2C3=C[C@@H]4O[C@]5(O[C@](C)(CO)C[C@H]5O)[C@@H](C)[C@]4(O)[C@@]3(C)[C@H](O)C[C@@H]2[C@@]1(C)C7 [CEPHALOSTATIN 14],4.4
8,C[C@@H]1[C@H]2C[C@@H]3O[C@@]34[C@]3(O)CC[C@H]5Cc6nc7c(nc6C[C@]5(C)C3=CC(=O)[C@]24CO[C@]12OC(C)(C)[C@@H](C)[C@H]2O)C[C@@H]1CC[C@H]2C3=C[C@@H]4O[C@]5(O[C@](C)(CO)C[C@H]5O)[C@@H](C)[C@]4(O)[C@@]3(C)[C@H](O)C[C@@H]2[C@@]1(C)C7 [CEPHALOSTATIN 15],26.2
9,C[C@@H]1[C@H]2CC=C3[C@@H]4CC[C@H]5Cc6nc7c(nc6C[C@]5(C)[C@@]4(O)CC(=O)[C@@]32CO[C@]12OC(C)(C)C[C@H]2O)C[C@@H]1CC[C@H]2C3=C[C@@H]4O[C@@]5(CC[C@](C)(O)CO5)[C@@H](C)[C@]4(O)[C@@]3(C)[C@H](O)C[C@@H]2[C@@]1(C)C7 [CEPHALOSTATIN 16],< 1.1
10,C[C@@H]1[C@H]2CC=C3[C@H]4CC[C@H]5Cc6nc7c(nc6C[C@]5(C)[C@@]4(O)CC(=O)[C@@]32CO[C@]12OC(C)(C)C[C@H]2O)C[C@@H]1CC[C@H]2C3=C[C@@H]4O[C@]5(O[C@](C)(CO)C[C@H]5O)[C@@H](C)[C@]4(O)[C@@]3(C)[C@H](O)C[C@@H]2[C@@]1(C)C7 [CEPHALOSTATIN 17],4.4
11,CO[C@H]1c2nc3c(nc2C[C@@H]2CC[C@H]4C5=C[C@@H]6O[C@]7(O[C@](C)(CO)C[C@H]7O)[C@@H](C)[C@]6(O)[C@@]5(C)[C@H](O)C[C@@H]4[C@]21C)C[C@@]1(C)[C@@H](CC[C@H]2C4=CC[C@@H]5[C@H](C)[C@@]6(OC[C@]45C(=O)C[C@@H]21)OC(C)(C)C[C@H]6O)C3 [CEPHALOSTATIN 18],4.6
12,CO[C@H]1c2nc3c(nc2C[C@@H]2CC[C@H]4C5=CC[C@@H]6[C@H](C)[C@@]7(OC[C@]56C(=O)C[C@@H]4[C@]21C)OC(C)(C)C[C@H]7O)C[C@@]1(C)[C@@H](CC[C@H]2C4=C[C@@H]5O[C@]6(O[C@](C)(CO)C[C@H]6O)[C@@H](C)[C@]5(O)[C@@]4(C)[C@H](O)C[C@@H]21)C3 [CEPHALOSTATIN 19],7.9
13,C[C@@H]1[C@@]2(CC[C@](C)(O)CO2)O[C@H]2C=C3[C@@H]4[C@@H](O)C[C@H]5Cc6nc7c(nc6C[C@]5(C)[C@H]4C[C@@H](O)[C@]3(C)[C@]21O)C[C@@H]1CC[C@@H]2[C@H](CC(=O)[C@]23C[C@@H]2O[C@@]4(CCC(C)(C)O4)[C@@H](C)[C@@H]2[C@]3(C)O)[C@@]1(C)C7 [RITTERAZINE A],14.2
14,C[C@@H]1[C@@]2(CC[C@](C)(O)CO2)O[C@H]2C=C3[C@@H]4[C@@H](O)C[C@H]5Cc6nc7c(nc6C[C@]5(C)[C@H]4C[C@@H](O)[C@]3(C)[C@]21O)C[C@@H]1CC[C@H]2[C@H]3C[C@@H]4O[C@@]5(CCC(C)(C)O5)C[C@@H]4[C@@]3(C)[C@H](O)C[C@@H]2[C@@]1(C)C7 [RITTERAZINE B],0.17
15,C[C@@H]1[C@@]2(CC[C@@](C)(CO)O2)O[C@H]2C=C3[C@@H]4[C@@H](O)C[C@H]5Cc6nc7c(nc6C[C@]5(C)[C@H]4C[C@@H](O)[C@]3(C)[C@]21O)C[C@@H]1CC[C@H]2[C@H]3C[C@@H]4O[C@]5(CCC(C)(C)O5)[C@@H](C)[C@@H]4[C@@]3(C)[C@H](O)C[C@@H]2[C@@]1(C)C7 [RITTERAZINE C],102
16,C[C@@H]1[C@@]2(CC[C@](C)(O)CO2)O[C@H]2C=C3[C@@H]4[C@@H](O)C[C@H]5Cc6nc7c(nc6C[C@]5(C)[C@H]4C[C@@H](O)[C@]3(C)[C@]21O)C[C@@H]1CC[C@@H]2[C@H](CC(=O)[C@]23C[C@@H]2O[C@]4(CCC(C)(C)O4)[C@@H](C)[C@@H]2[C@]3(C)O)[C@@]1(C)C7 [RITTERAZINE D],17.5
17,C[C@@H]1[C@@]2(CC[C@](C)(O)CO2)O[C@H]2C=C3[C@@H]4[C@@H](O)C[C@H]5Cc6nc7c(nc6C[C@]5(C)[C@H]4C[C@@H](O)[C@]3(C)[C@]21O)C[C@@H]1CC[C@@H]2[C@H](CC(=O)[C@]23C[C@@H]2O[C@]4(C[C@H](C)C(C)(C)O4)[C@@H](C)[C@@H]2[C@]3(C)O)[C@@]1(C)C7 [RITTERAZINE E],3.8
18,C[C@@H]1[C@@]2(CC[C@](C)(O)CO2)O[C@H]2C=C3[C@@H]4[C@@H](O)C[C@H]5Cc6nc7c(nc6C[C@]5(C)[C@H]4C[C@@H](O)[C@]3(C)[C@]21O)C[C@@H]1CC[C@H]2[C@H]3C[C@@H]4O[C@]5(CCC(C)(C)O5)C[C@@H]4[C@@]3(C)[C@H](O)C[C@@H]2[C@@]1(C)C7 [RITTERAZINE F],0.81
19,C[C@@H]1[C@@]2(CC[C@](C)(O)CO2)O[C@H]2C=C3[C@@H]4[C@@H](O)C[C@H]5Cc6nc7c(nc6C[C@]5(C)[C@H]4C[C@@H](O)[C@]3(C)[C@]21O)C[C@@H]1CC[C@H]2C3=C[C@@H]4O[C@]5(CCC(C)(C)O5)C[C@@H]4[C@@]3(C)[C@H](O)C[C@@H]2[C@@]1(C)C7 [RITTERAZINE G],0.81
20,C[C@@H]1[C@@]2(CC[C@](C)(O)CO2)O[C@H]2C=C3[C@@H]4[C@@H](O)C[C@H]5Cc6nc7c(nc6C[C@]5(C)[C@H]4C[C@@H](O)[C@]3(C)[C@]21O)C[C@@H]1CC[C@H]2[C@H]3C[C@@H]4O[C@@]5(CCC(C)(C)O5)C[C@@H]4[C@@]3(C)C(=O)C[C@@H]2[C@@]1(C)C7 [RITTERAZINE H],17.8
21,C[C@@H]1[C@@]2(CC[C@](C)(O)CO2)O[C@H]2C=C3[C@@H]4[C@@H](O)C[C@H]5Cc6nc7c(nc6C[C@]5(C)[C@H]4C[C@@H](O)[C@]3(C)[C@]21O)C[C@@H]1CC[C@@H]2[C@H](CC(=O)[C@]3(C)[C@H]4C[C@@]5(CCC(C)(C)O5)O[C@H]4C[C@]23O)[C@@]1(C)C7 [RITTERAZINE I],15.3
22,C[C@@H]1[C@@]2(CC[C@](C)(O)CO2)O[C@H]2C=C3[C@@H]4[C@@H](O)C[C@H]5Cc6nc7c(nc6C[C@]5(C)[C@H]4C[C@@H](O)[C@]3(C)[C@]21O)C[C@@H]1CC[C@H]2C3=C[C@@H]4O[C@]5(CC[C@@](C)(O)CO5)[C@@H](C)[C@]4(O)[C@@]3(C)[C@H](O)C[C@@H]2[C@@]1(C)C7 [RITTERAZINE J],14
23,C[C@@H]1[C@@]2(CC[C@](C)(O)CO2)O[C@H]2C=C3[C@H]4CC[C@H]5Cc6nc7c(nc6C[C@]5(C)[C@H]4C[C@@H](O)[C@]3(C)[C@]21O)C[C@@H]1CC[C@H]2C3=C[C@@H]4O[C@]5(CC[C@@](C)(O)CO5)[C@@H](C)[C@]4(O)[C@@]3(C)[C@H](O)C[C@@H]2[C@@]1(C)C7 [RITTERAZINE K],10.4
24,C[C@@H]1[C@@]2(CC[C@](C)(O)CO2)O[C@H]2C=C3[C@@H]4CC[C@H]5Cc6nc7c(nc6C[C@]5(C)[C@H]4C[C@@H](O)[C@]3(C)[C@]21O)C[C@@H]1CC[C@H]2C3=C[C@@H]4O[C@]5(CC[C@@](C)(O)CO5)[C@@H](C)[C@@H]4[C@@]3(C)[C@H](O)C[C@@H]2[C@@]1(C)C7 [RITTERAZINE L],11.1
